ChEMBL document CHEMBL3045788, “Effect of abamectin on root-knot nematodes and tomato yield” (Pest Manag Sci, 2012)
The source made the active and inactive calls. The rule behind the calls is not given here.

Assays:
[1] = system: Meloidogyne incognita; test: Nematicidal activity against second-stage juvenile Meloidogyne incognita (root-knot nematode) infested tomato field assessed as medium fruit yield at 10 L/hectare; type: functional
[2] = system: Meloidogyne incognita; test: Nematicidal activity against second-stage juvenile Meloidogyne incognita (root-knot nematode) infested tomato field assessed as reduction in number of nematodes in soil at 5 L/hectare measured after 20 days; type: functional, organism-based
[3] = system: Meloidogyne incognita; test: Nematicidal activity against second-stage juvenile Meloidogyne incognita (root-knot nematode) infested tomato plant under greenhouse condition assessed as plant height at 7.5 L/hectare measured after 30 days; type: functional
[4] = system: Meloidogyne incognita; test: Nematicidal activity against second-stage juvenile Meloidogyne incognita (root-knot nematode) infested tomato field assessed as reduction in root galling index at 5 L/hectare measured after 30 days; type: functional, organism-based
[5] = system: Meloidogyne incognita; test: Nematicidal activity against second-stage juvenile Meloidogyne incognita (root-knot nematode) infested tomato field assessed as marketable yield at 10 L/hectare; type: functional
[6] = system: Meloidogyne incognita; test: Nematicidal activity against second-stage juvenile Meloidogyne incognita (root-knot nematode) infested tomato plant under greenhouse condition assessed as plant vigour at 7.5 L/hectare measured after 30 days; type: functional
[7] = system: Meloidogyne incognita; test: Nematicidal activity against second-stage juvenile Meloidogyne incognita (root-knot nematode) infested tomato field assessed as plant height at 5 L/hectare measured after 50 days; type: functional
[8] = system: Meloidogyne incognita; test: Nematicidal activity against second-stage juvenile Meloidogyne incognita (root-knot nematode) infested tomato field assessed as extra-large fruit yield at 7.5 L/hectare; type: functional
[9] = system: Meloidogyne incognita; test: Nematicidal activity against second-stage juvenile Meloidogyne incognita (root-knot nematode) infested tomato field assessed as plant height at 7.5 L/hectare measured after 50 days; type: functional
[10] = system: Meloidogyne incognita; test: Nematicidal activity against Meloidogyne incognita (root-knot nematode) assessed as per seed; type: functional, organism-based
[11] = system: Meloidogyne incognita; test: Nematicidal activity against second-stage juvenile Meloidogyne incognita (root-knot nematode) infested tomato plant under greenhouse condition assessed as fresh root weight at 5 L/hectare measured after 30 days; type: functional
[12] = system: Meloidogyne incognita; test: Nematicidal activity against second-stage juvenile Meloidogyne incognita (root-knot nematode) infested tomato plant under greenhouse condition assessed as plant height at 5 L/hectare measured after 30 days; type: functional
[13] = system: Meloidogyne incognita; test: Nematicidal activity against second-stage juvenile Meloidogyne incognita (root-knot nematode) infested tomato plant under greenhouse condition assessed as plant vigour at 10 L/hectare measured after 30 days; type: functional
[14] = system: Meloidogyne incognita; test: Nematicidal activity against second-stage juvenile Meloidogyne incognita (root-knot nematode) infested tomato field assessed as reduction in number of nematodes in soil at 7.5 L/hectare measured after 40 days; type: functional, organism-based
[15] = system: Meloidogyne incognita; test: Nematicidal activity against second-stage juvenile Meloidogyne incognita (root-knot nematode) infested tomato field assessed as reduction in number of nematodes in soil at 10 L/hectare measured after 60 days; type: functional, organism-based
[16] = system: Meloidogyne incognita; test: Nematicidal activity against second-stage juvenile Meloidogyne incognita (root-knot nematode) infested tomato field assessed as plant height at 10 L/hectare measured after 50 days; type: functional
[17] = system: Meloidogyne incognita; test: Nematicidal activity against second-stage juvenile Meloidogyne incognita (root-knot nematode) infested tomato field assessed as reduction in number of nematodes in soil at 5 L/hectare measured after 40 days; type: functional, organism-based
[18] = system: Meloidogyne incognita; test: Nematicidal activity against second-stage juvenile Meloidogyne incognita (root-knot nematode) infested tomato field assessed as large fruit yield at 5 L/hectare; type: functional
[19] = system: Meloidogyne incognita; test: Nematicidal activity against second-stage juvenile Meloidogyne incognita (root-knot nematode) infested tomato field assessed as large fruit yield at 10 L/hectare; type: functional
[20] = system: Meloidogyne incognita; test: Nematicidal activity against second-stage juvenile Meloidogyne incognita (root-knot nematode) infested tomato field assessed as reduction in number of nematodes in soil at 7.5 L/hectare measured after 60 days; type: functional, organism-based
[21] = system: Meloidogyne incognita; test: Nematicidal activity against second-stage juvenile Meloidogyne incognita (root-knot nematode) infested tomato field assessed as reduction in number of nematodes in soil at 7.5 L/hectare measured after 20 days; type: functional, organism-based
[22] = system: Meloidogyne incognita; test: Nematicidal activity against second-stage juvenile Meloidogyne incognita (root-knot nematode) infested tomato plant under greenhouse condition assessed as reduction in root galling index at 10 L/hectare measured after 30 days; type: functional, organism-based
[23] = system: Meloidogyne incognita; test: Nematicidal activity against second-stage juvenile Meloidogyne incognita (root-knot nematode) infested tomato field assessed as plant height at 5 L/hectare measured after 30 days; type: functional
[24] = system: Meloidogyne incognita; test: Nematicidal activity against second-stage juvenile Meloidogyne incognita (root-knot nematode) infested tomato field assessed as medium fruit yield at 7.5 L/hectare; type: functional
[25] = system: Meloidogyne incognita; test: Nematicidal activity against second-stage juvenile Meloidogyne incognita (root-knot nematode) infested tomato field assessed as plant vigour at 7.5 L/hectare measured after 30 days; type: functional
[26] = system: Meloidogyne incognita; test: Nematicidal activity against second-stage juvenile Meloidogyne incognita (root-knot nematode) assessed as mortality after 48 hr; type: functional
[27] = system: Meloidogyne incognita; test: Nematicidal activity against second-stage juvenile Meloidogyne incognita (root-knot nematode) infested tomato field assessed as plant height at 7.5 L/hectare measured after 30 days; type: functional
[28] = system: Meloidogyne incognita; test: Nematicidal activity against second-stage juvenile Meloidogyne incognita (root-knot nematode) infested tomato field assessed as reduction in number of nematodes in soil at 10 L/hectare measured after 40 days; type: functional, organism-based
[29] = system: Meloidogyne incognita; test: Nematicidal activity against second-stage juvenile Meloidogyne incognita (root-knot nematode) infested tomato field assessed as plant vigour at 5 L/hectare measured after 30 days; type: functional
[30] = system: Meloidogyne incognita; test: Nematicidal activity against second-stage juvenile Meloidogyne incognita (root-knot nematode) infested tomato field assessed as marketable yield at 5 L/hectare; type: functional
[31] = system: Meloidogyne incognita; test: Nematicidal activity against second-stage juvenile Meloidogyne incognita (root-knot nematode) infested tomato field assessed as plant height at 10 L/hectare measured after 30 days; type: functional
[32] = system: Meloidogyne incognita; test: Nematicidal activity against second-stage juvenile Meloidogyne incognita (root-knot nematode) infested tomato plant under greenhouse condition assessed as fresh root weight at 7.5 L/hectare measured after 30 days; type: functional
[33] = system: Meloidogyne incognita; test: Nematicidal activity against second-stage juvenile Meloidogyne incognita (root-knot nematode) infested tomato plant under greenhouse condition assessed as reduction in root galling index at 7.5 L/hectare measured after 30 days; type: functional, organism-based
[34] = system: Meloidogyne incognita; test: Nematicidal activity against second-stage juvenile Meloidogyne incognita (root-knot nematode) infested tomato field assessed as medium fruit yield at 5 L/hectare; type: functional
[35] = system: Meloidogyne incognita; test: Nematicidal activity against second-stage juvenile Meloidogyne incognita (root-knot nematode) infested tomato field assessed as plant vigour at 10 L/hectare measured after 30 days; type: functional
[36] = system: Meloidogyne incognita; test: Nematicidal activity against second-stage juvenile Meloidogyne incognita (root-knot nematode) infested tomato plant under greenhouse condition assessed as plant vigour at 5 L/hectare measured after 30 days; type: functional
[37] = system: Meloidogyne incognita; test: Nematicidal activity against second-stage juvenile Meloidogyne incognita (root-knot nematode) infested tomato plant under greenhouse condition assessed as reduction in root galling index at 5 L/hectare measured after 30 days; type: functional, organism-based
[38] = system: Meloidogyne incognita; test: Nematicidal activity against second-stage juvenile Meloidogyne incognita (root-knot nematode) infested tomato plant under greenhouse condition assessed as fresh root weight at 10 L/hectare measured after 30 days; type: functional
[39] = system: Meloidogyne incognita; test: Nematicidal activity against second-stage juvenile Meloidogyne incognita (root-knot nematode) infested tomato field assessed as reduction in number of nematodes in soil at 10 L/hectare measured after 20 days; type: functional, organism-based
[40] = system: Meloidogyne incognita; test: Nematicidal activity against second-stage juvenile Meloidogyne incognita (root-knot nematode) infested tomato field assessed as marketable yield at 7.5 L/hectare; type: functional
[41] = system: Meloidogyne incognita; test: Nematicidal activity against second-stage juvenile Meloidogyne incognita (root-knot nematode) infested tomato field assessed as extra-large fruit yield at 10 L/hectare; type: functional
[42] = system: Meloidogyne incognita; test: Nematicidal activity against second-stage juvenile Meloidogyne incognita (root-knot nematode) infested tomato field assessed as reduction in root galling index at 10 L/hectare measured after 30 days; type: functional, organism-based
[43] = system: Meloidogyne incognita; test: Nematicidal activity against second-stage juvenile Meloidogyne incognita (root-knot nematode) infested tomato plant under greenhouse condition assessed as plant height at 10 L/hectare measured after 30 days; type: functional
[44] = system: Meloidogyne incognita; test: Nematicidal activity against second-stage juvenile Meloidogyne incognita (root-knot nematode) infested tomato field assessed as reduction in number of nematodes in soil at 5 L/hectare measured after 60 days; type: functional, organism-based
[45] = system: Meloidogyne incognita; test: Nematicidal activity against second-stage juvenile Meloidogyne incognita (root-knot nematode) infested tomato field assessed as extra-large fruit yield at 5 L/hectare; type: functional
[46] = system: Meloidogyne incognita; test: Nematicidal activity against second-stage juvenile Meloidogyne incognita (root-knot nematode) infested tomato field assessed as large fruit yield at 7.5 L/hectare; type: functional
[47] = system: Meloidogyne incognita; test: Nematicidal activity against second-stage juvenile Meloidogyne incognita (root-knot nematode) infested tomato field assessed as reduction in root galling index at 7.5 L/hectare measured after 30 days; type: functional, organism-based

CC[C@H](C)[C@H]1O[C@]2(C=C[C@@H]1C)C[C@@H]1C[C@@H](C/C=C(\C)[C@@H](O[C@H]3C[C@H](OC)[C@@H](O[C@H]4C[C@H](OC)[C@@H](O)[C@H](C)O4)[C@H](C)O3)[C@@H](C)/C=C/C=C3\CO[C@@H]4[C@H](O)C(C)=C[C@@H](C(=O)O1)[C@]34O)O2.CO[C@H]1C[C@H](O[C@H]2[C@H](C)O[C@@H](O[C@@H]3/C(C)=C/C[C@@H]4C[C@@H](C[C@]5(C=C[C@H](C)[C@@H](C(C)C)O5)O4)OC(=O)[C@@H]4C=C(C)[C@@H](O)[C@H]5OC/C(=C\C=C\[C@@H]3C)[C@]54O)C[C@@H]2OC)O[C@@H](C)[C@@H]1O [ABAMECTIN]
Activity [1]: 41.3% | Activity [2]: Active | Activity [3]: 37.5 cm | Activity [4]: Active | Activity [5]: 69.2% | Activity [6]: 87% | Activity [7]: 94.3 cm | Activity [8]: 5.8% | Activity [9]: 98.6 cm | EC50 [10]: 0.016 mgAi | EC80 [10]: 0.28 mgAi | Activity [11]: 0.98 g | Activity [12]: 35.4 cm | Activity [13]: 92% | Activity [14]: Active | Activity [15]: Active | Activity [16]: 102.8 cm | Activity [17]: Active | Activity [18]: 17.4% | Activity [19]: 20.6% | Activity [20]: Active | Activity [21]: Active | Activity [22]: Active | Activity [23]: 32.4 cm | Activity [24]: 39.5% | Activity [25]: 87% | LC50 [26]: 7.06 mgAi/L | LC90 [26]: 21.81 mgAi/L | Activity [27]: 35.9 cm | Activity [28]: Active | Activity [29]: 85% | Activity [30]: 59.4% | Activity [31]: 39.1 cm | Activity [32]: 1.09 g | Activity [33]: Active | Activity [34]: 36.7% | Activity [35]: 92% | Activity [36]: 85% | Activity [37]: Active | Activity [38]: 1.14 g | Activity [39]: Active | Activity [40]: 63.4% | Activity [41]: 7.3% | Activity [42]: Active | Activity [43]: 39.2 cm | Activity [44]: Active | Activity [45]: 5.3% | Activity [46]: 18.1% | Activity [47]: Active
